Assay results reported in patent US8097650B2, “Method of treating a condition associated with phosphorylation of TASK-1” (The Trustees of Columbia University In The City of New York, priority 2005, dated 2012).

Legend:
[1] = test system: murine ventricular myocytes; assay: Arrhythmias induced by PKCε activator peptide in murine ventricular myocytes, rescue by TREK-1 activators; format: cell-based, mouse
Experimental: FIGS. 23A-23D. Activation of TREK-1 can overcome arrhythmias induced by inhibition of TASK-1. Isolated murine ventricular myocytes were studied in current clamp mode and paced at 1 Hz. The cells were studied in regular Tyrode's, pH 7.4. Recordings were begun immediately after rupture and continued for 12-15 min, with the 5.5 min time point illustrated. A PKCε-specific activator peptide (100 nM) was included in the patch pipette, which lead to inhibition of TASK-1 current and repolarization abnormalities (23A and 23B).
FIG. 25. Activation of TREK-1 can overcome arrhythmias induced by inhibition of TASK-1. Isolated murine ventricular myocytes were studied in current clamp mode and paced at 1 Hz. The cells were studied in regular Tyrode's, pH 7.4. Recordings were begun immediately after rupture and continued for 12-15 min. A PKCε-specific activator peptide (100 nM) […] or a scrambled control peptide (100 nM) (25A) was included in the patch pipette. After the activator peptide had induced repolarization abnormalities (25B left panel), a TREK-1 activator, ONO-RS-082 (100 nM) was added to the superfusion.
Isolated murine ventricular myocytes were studied in current clamp mode and paced at 1 Hz. The cells were studied in regular Tyrode's, pH 7.4, and recordings were begun immediately after rupture and continued for 12-15 min, with the 5.5 min timepoint illustrated. As shown in FIGS. 23A and 23B, a PKCε-specific activator peptide (100 nM) was included in the patch pipette which lead to inhibition of TASK-1 current and repolarization abnormalities.

[2] = biological target: T1, TASK-1 (Mus musculus, UniProt O35111); assay: C-PAF-sensitive steady-state current in murine ventricular myocytes (voltage clamp); format: cell-based; conditions: for C-PAF-sensitive current density: held at −70 mV
T1 construct: endogenous in cells; host or cells: adult mouse ventricular myocytes (C57/B16 background; WT or PAFR KO)
Experimental: Adult mice, 2-3 months old, were anesthetized with ketamine/xylazine and their hearts were removed according to protocols approved by the Columbia University-IACUC. Experiments were performed on single rod-shaped, quiescent ventricular myocytes dissociated using a standard retrograde collagenase perfusion (Kuznetsov V et al. (1995) Circ Res 76: 40-52) from hearts of mice that were either wild-type (WT), or PAFR knockouts (KO). Both WT and KO mice were bred on a C57/B16 background. The derivation of the KO mice has been described previously (Hoffman, B F et al.(1996) J Cardiovasc Electrophysiol 7:120-133).
Prior to electrophysiological measurements, cells were placed into the perfusion chamber and superfused at room temperature with Tyrode's buffer (in mM: NaCl, 140; KCl, 5.4; CaCl2 1; MgCl2, Hepes, 5; Glucose, 10; pH 7.4). The whole-cell patch clamp technique was used with pipettes having resistances of 1.5-3 MΩ (intracellular solution, in mM: aspartic acid, 130; KOH, 146; NaCl, 10; CaCl2, 2; EGTA, 5; Hepes, 10; MgATP, 2; pH 7.2). Solutions of C-PAF, the PAFR antagonist, CV-6209 (Biomol) and the PKC inhibitor, bisindolylmaleimide I (BIM I; Calbiochem) were prepared in water and diluted in Tyrode's before use. […] A custom-made fast perfusion device was used to exchange the solution around the cell within 1 s (DiFrancesco et al. (1986) J Physiol 377: 61-88).
Current and voltage protocols were generated using Clampex 7.0 software applied by means of an Axopatch 200B amplifier and a Digidata 1200 interface (Axon Instruments). During voltage clamp, steady state current traces were acquired at 500 Hz and final filtered at 10 Hz. During current clamp, membrane voltage was acquired at 5 KHz and filtered at 1 KHz. Ramp clamps were conducted by imposing a voltage ramp (14 mV/s) at a 500 Hz acquisition rate with 1 kHz filtering. Data were analyzed using pCLAMP 8.0 (Axon) and Origin 6.0 (Microcal) and are presented as mean±SEM. Steady-state current was determined by computer calculation of average current over a time period of at least 5 s. In all experiments, the n value indicates the number of myocytes studied, and represents pooled data from at least 2 (voltage clamp) or 3 (current clamp) animals. Student's t-test, one-way ANOVA and χ^2 tests were used; a value of p<0.05 was considered statistically significant. Records have been corrected for the junction potential, which was measured to be 9.8 mV.

[3] = test system: human TASK-1 S358A; assay: Human TASK-1 S358A mutant current in CHO cells; format: cell-based; conditions: Tyrode's pH 8, ramp
Description: FIGS. 24A-24B. Mutations in human TASK-1 remove the sensitivity to C-PAF and PMA when the channel is expressed in CHO cells. Two human TASK-1 (hTASK-1) mutants in which either serine-358 was converted to alanine (S358A) or threonine-383 was converted to alanine (T383A) were generated and separately expressed in CHO cells. The C-PAF-sensitive (24A) and PMA-sensitive currents (24B) were obtained in Tyrode's at pH 8 using a ramp protocol in […] configuration, essentially as described in FIG. 15. […] However, the S358A channel was not inhibited in the presence of C-PAF (24A) and the T383A channel was not inhibited by PMA (24B).

T1 sequence (O35111 whole entry): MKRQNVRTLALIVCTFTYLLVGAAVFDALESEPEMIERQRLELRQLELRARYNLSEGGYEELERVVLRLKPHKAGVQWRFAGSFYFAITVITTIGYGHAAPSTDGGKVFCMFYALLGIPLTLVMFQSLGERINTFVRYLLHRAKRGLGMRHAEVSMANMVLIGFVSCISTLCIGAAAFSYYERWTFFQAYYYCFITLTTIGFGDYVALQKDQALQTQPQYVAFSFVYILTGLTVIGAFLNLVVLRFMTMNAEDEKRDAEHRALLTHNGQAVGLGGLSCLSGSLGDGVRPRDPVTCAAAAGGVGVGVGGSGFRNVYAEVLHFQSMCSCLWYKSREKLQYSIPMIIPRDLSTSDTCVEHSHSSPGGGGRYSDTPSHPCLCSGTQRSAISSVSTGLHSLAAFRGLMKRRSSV

Row | Structure (SMILES) | effect on established peptide-induced arrhythmia ([1]; ONO-RS-082 100 nM in superfusion) | rhythm after washout of drug ([1]; ONO-RS-082 removed) | decrease in conductance ([2]; +10 mV step, cells held at −10 mV) | reversal potential of C-PAF-sensitive current ([2]; extracellular K+ 50 mM, Cs+ 5 mM, TEA 1 mM) | C-PAF-sensitive current density ([2]; control cells) | C-PAF-sensitive current density ([2]; in the presence of Cs+ 5 mM) | time to peak of C-PAF-sensitive current ([2]; −70 mV) | inhibition of S358A channel [3]
1 | CCCCCc1ccc(C=CC(=O)Nc2cc(Cl)ccc2C(=O)O)cc1 [ONO-RS-082] | promptly reversed the arrhythmia | the arrhythmias recurred |  |  |  |  |  | 
2 | CCCCCCCCCCCCCCCCOC[C@H](COP(=O)([O-])OCC[N+](C)(C)C)OC(=O)NC [C-PAF, carbamyl-platelet-activating factor] |  |  | 17.5±3.9% | −20.4±3 mV | 0.047±0.01 pA/pF | 0.047±0.03 pA/pF | 74 ± 13 s | not inhibited
